Data published in patent US11098029B2, “5-alkyl pyrrolidine orexin receptor agonists” (Merck Sharp & Dohme Corp., priority 2019, dated 2021).

target: human OX2R (Homo sapiens (Human), UniProt O43614); assay: IPOne (IP-One, Cisbio) orexin receptor agonist assay in CHO cells expressing human OX2R; settings: CHO, hOX2R_IP; percentage of mean max effect of a reference compound at 1 uM (100% activity vs Orexin A)
Sequence (O43614 whole entry): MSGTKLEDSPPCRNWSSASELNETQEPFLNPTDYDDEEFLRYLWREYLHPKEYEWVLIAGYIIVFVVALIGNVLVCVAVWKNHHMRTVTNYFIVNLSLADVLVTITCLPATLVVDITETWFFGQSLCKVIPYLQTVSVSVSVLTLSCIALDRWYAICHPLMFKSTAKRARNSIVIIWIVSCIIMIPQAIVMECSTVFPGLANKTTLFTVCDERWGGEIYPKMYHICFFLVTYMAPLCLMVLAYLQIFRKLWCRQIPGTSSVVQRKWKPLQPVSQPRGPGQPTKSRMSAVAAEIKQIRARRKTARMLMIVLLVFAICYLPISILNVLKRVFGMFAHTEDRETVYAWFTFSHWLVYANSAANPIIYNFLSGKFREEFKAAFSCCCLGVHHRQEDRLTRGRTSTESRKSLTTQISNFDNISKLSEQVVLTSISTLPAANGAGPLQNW
Experimental: Both the OX1R and/or OX2R G-coupled protein receptors (GPCRs) couple through the Gaq signaling pathway, which ultimately promotes calcium mobilization via inositol triphosphate (IP3) production.
In a typical experiment, the OX1 and OX2 receptor agonist activity is determined in accordance with the following general experimental method. Chinese hamster ovary (CHO) cells expressing human OX1R and/or the human OX2R were grown in Iscove's modified DMEM containing glutaMAX®, 1% G418, 100 U/mL penicillin, 100 μg/mL streptomycin and 10% heat-inactivated qualified fetal bovine serum (FBS). […] During this incubation, IP-one detection reagents were prepared (38:1:1 lysis buffer:D2:AB-cryptate reagents).
For each compound, data were fit to a four parameter logistic fit (ActivityBase software) and the EC50 was reported as the inflection point of the resulting curve.

**Q.** How did the Emax turn out when `COCCS(=O)(=O)N[C@H]1C[C@@H](C)N(C(=O)OC)[C@H]1COC1CCC(c2cccc(F)c2)CC1` (stereo partly shown) [Example 61] was run?
**A.** Its Emax is 105%.

**Q.** How did the Emax turn out when `COC(=O)N1[C@H](C)C[C@H](NS(=O)(=O)CF)[C@@H]1COC1CCC(c2cccc(F)c2)CC1` (stereo partly drawn) [Example 62, methyl (2R,3S,5R)-3-((fluoromethyl)sulfona-mido)-2-((((1s,4S)-4-(3-fluorophenyl)cyclohex-yl)oxy)methyl)-5-methylpyrrolidine-1-carboxylate] was run?
**A.** Its Emax is 98%.

**Q.** How did the Emax turn out when `CCc1ccccc1[C@H]1CC[C@@H](OC[C@H]2[C@@H](NS(=O)(=O)N(C)C)C[C@@H](C)N2C(=O)OC)CC1` [Example 65, Methyl (2R,3S,5R)-3-((N,N-dimethylsulfamoyl)amino)-2-((((1s,4S)-4-(2-ethylphenyl)cyclohexyl)oxy)methyl)-5-methylpyrrolidine-1-carboxylate] was run?
**A.** Its Emax is 101%.

**Q.** `CCc1ccccc1[C@H]1CC[C@H](OC[C@H]2[C@@H](NS(=O)(=O)N(C)C)C[C@@H](C)N2C(=O)OC)CC1` [Example 66, methyl (2R,3S,5R)-3-((N,N-dimethylsulfamoyl)amino)-2-((((1r,4R)-4-(2-ethylphenyl)cyclohexyl)oxy)methyl)-5-methylpyrrolidine-1-carboxylate] was tested. Which Emax did it give?
**A.** The Emax was 100%.

**Q.** With `COC(=O)N1[C@H](C)C[C@H](NS(C)(=O)=O)[C@@H]1CO[C@H]1CC[C@@H](c2ccc(F)c(F)c2)CC1` [Example 73, Methyl (2R,3S,5R)-2-((((1s,4S)-4-(3,4-difluorophenyl)cyclohexyl)oxy)methyl)-5-methyl-3-(methylsulfonamido)pyrrolidine-1-carboxylate] as the molecule, how does the Emax read?
**A.** The Emax was 101%.

same assay, conditions: hOX2R_IP; percentage of mean max effect of a reference compound at 1 uM (100% activity vs Orexin A)

**Q.** `COC(=O)N1[C@H](C)C[C@H](NS(=O)(=O)CC(F)F)[C@@H]1CO[C@H]1CC[C@@H](c2cccc(F)c2)CC1` [Example 60, Methyl (2R,3S,5R)-3-((2,2-difluoroethyl)sulfonamido)-2-((((1s,4S)-4-(3-fluorophenyl)-cyclohexyl)oxy)methyl)-5-methylpyrrolidine-1-carboxylate] was tested. Which “Emax (%)” value did it give?
**A.** The value was 99%.

**Q.** `COC(=O)N1[C@H](C)C[C@H](NS(=O)(=O)N(C)C)[C@@H]1CO[C@H]1CC[C@@H](c2ccc(C#N)c(C)c2)CC1` [Example 63, Methyl (2R,3S,5R)-2-((((1s,4S)-4-(4-cyano-3-methylphenyl)cyclohexyl)oxy)methyl)-3-((N,N-dimethylsulfamoyl)amino)-5-methylpyrrolidine-1-carboxylate] was tested. Which “Emax (%)” value did it give?
**A.** The value was 100%.

**Q.** Which “Emax (%)” value does the source give for `COC(=O)N1[C@H](C)C[C@H](NS(=O)(=O)N(C)C)[C@@H]1CO[C@H]1CC[C@H](c2ccc(C#N)c(C)c2)CC1` [Example 64, Methyl (2R,3S,5R)-2-((((1r,4R)-4-(4-cyano-3-methylphenyl)cyclohexyl)oxy)methyl)-3-((N,N-dimethylsulfamoyl)amino)-5-methylpyrrolidine-1-carboxylate] here?
**A.** Its value is 99%.

**Q.** How did the “Emax (%)” value turn out when `COC(=O)N1[C@H](C)C[C@H](NS(C)(=O)=O)[C@@H]1CO[C@H]1CC[C@H](c2ncccn2)CC1` [Example 69, Methyl (2R,3S,5R)-5-methyl-3-(methylsulfonamido)-2-((((1r,4R)-4-(pyrimidin-2-yl)cyclohexyl)oxy)methyl)pyrrolidine-1-carboxylate] was run?
**A.** Its value is 98%.

**Q.** For `COC(=O)N1[C@H](C)C[C@H](NS(C)(=O)=O)[C@@H]1CO[C@H]1CC[C@@H](c2ncccn2)CC1` [Example 70, Methyl (2R,3S,5R)-5-methyl-3-(methylsulfonamido)-2-((((1s,4S)-4-(pyrimidin-2-yl)cyclohexyl)oxy)methyl)pyrrolidine-1-carboxylate], which “Emax (%)” value is on record?
**A.** The value was 99%.

**Q.** For `COC(=O)N1[C@H](C)C[C@H](NS(C)(=O)=O)[C@@H]1CO[C@H]1CC[C@@H](c2cc(F)cc(F)c2)CC1` [Example 71, Methyl (2R,3S,5R)-2-((((1s,4S)-4-(3,5-difluorophenyl)cyclohexyl)oxy)methyl)-5-methyl-3-(methylsulfonamido)pyrrolidine-1-carboxylate], which “Emax (%)” value is on record?
**A.** The value was 102%.

**Q.** How did the “Emax (%)” value turn out when `COC(=O)N1[C@H](C)C[C@H](NS(C)(=O)=O)[C@@H]1CO[C@H]1CC[C@H](c2cc(F)cc(F)c2)CC1` [Example 72, Methyl (2R,3S,5R)-2-((((1r,4R)-4-(3,5-difluorophenyl)cyclohexyl)oxy)methyl)-5-methyl-3-(methylsulfonamido)pyrrolidine-1-carboxylate] was run?
**A.** The value was 100%.

**Q.** How did the “Emax (%)” value turn out when “methyl (CIS)-5-ethynyl-3-(methylsulfonamido)-2-((((CIS)-4-phenylcyclohexyl)oxy)methyl)-pyrrolidine-1-carboxylate [Example 47]” was run?
**A.** Its value is 101%.
